From publication PMC4605435 (Journal of medicinal chemistry, 2015)
Counter-ions that a name gives are not always drawn.

Experiments:
ACK1 autophosphorylation = conditions: read-out: IC50 inhibition of ACK1 autophosphorylation in intact cells; cited from earlier work
ACK1 [1] = target: T1, ACK1 (Homo sapiens, UniProt Q07912); test: ELISA-based ACK1 kinase inhibition; format: biochemical; conditions: for inhibition at 10 µM: read-out: % Inhibition @ 10 μM (ELISA); for ACK1 inhibition in ELISA: 10 μM
[2] = target: ACK1 Tyr284 phosphorylation in LAPC4 cells (Homo sapiens, UniProt Q07912); test: ACK1 Tyr284 autophosphorylation by immunoblotting in EGF-treated LAPC4 cells; format: cell-based; conditions: 5 μM, immunoblot (Figure 3a)
LNCaP cells = test: Cell growth, viable cells by trypan blue exclusion, LNCaP; format: cell-based; conditions: Homo sapiens, 72 h, read-out: IC50 cell growth LNCaP
[3] = In vitro human plasma stability by HPLC; format: in vitro ADME; conditions: for stability in human plasma: up to 24 h, HPLC
ACK1 [4] = target: T1, ACK1; test: 33P HotSpot assay; format: biochemical; conditions: IC50 (33P Hotspot assay)
[5] = standards; cited from earlier work
ALK = ALK (Homo sapiens, UniProt Q9UM73); test: 33P HotSpot kinase profiling, ALK; format: biochemical; conditions: ALK vs ACK1
A549 lung cancer cells = conditions: at 10 μM; cited from earlier work
VCaP cells = test: Cell growth, viable cells by trypan blue exclusion, VCaP; format: cell-based; conditions: Homo sapiens, 72 h, read-out: IC50 cell growth VCaP

ACK1 Tyr284 phosphorylation in LAPC4 cells, sequence (Q07912 whole entry): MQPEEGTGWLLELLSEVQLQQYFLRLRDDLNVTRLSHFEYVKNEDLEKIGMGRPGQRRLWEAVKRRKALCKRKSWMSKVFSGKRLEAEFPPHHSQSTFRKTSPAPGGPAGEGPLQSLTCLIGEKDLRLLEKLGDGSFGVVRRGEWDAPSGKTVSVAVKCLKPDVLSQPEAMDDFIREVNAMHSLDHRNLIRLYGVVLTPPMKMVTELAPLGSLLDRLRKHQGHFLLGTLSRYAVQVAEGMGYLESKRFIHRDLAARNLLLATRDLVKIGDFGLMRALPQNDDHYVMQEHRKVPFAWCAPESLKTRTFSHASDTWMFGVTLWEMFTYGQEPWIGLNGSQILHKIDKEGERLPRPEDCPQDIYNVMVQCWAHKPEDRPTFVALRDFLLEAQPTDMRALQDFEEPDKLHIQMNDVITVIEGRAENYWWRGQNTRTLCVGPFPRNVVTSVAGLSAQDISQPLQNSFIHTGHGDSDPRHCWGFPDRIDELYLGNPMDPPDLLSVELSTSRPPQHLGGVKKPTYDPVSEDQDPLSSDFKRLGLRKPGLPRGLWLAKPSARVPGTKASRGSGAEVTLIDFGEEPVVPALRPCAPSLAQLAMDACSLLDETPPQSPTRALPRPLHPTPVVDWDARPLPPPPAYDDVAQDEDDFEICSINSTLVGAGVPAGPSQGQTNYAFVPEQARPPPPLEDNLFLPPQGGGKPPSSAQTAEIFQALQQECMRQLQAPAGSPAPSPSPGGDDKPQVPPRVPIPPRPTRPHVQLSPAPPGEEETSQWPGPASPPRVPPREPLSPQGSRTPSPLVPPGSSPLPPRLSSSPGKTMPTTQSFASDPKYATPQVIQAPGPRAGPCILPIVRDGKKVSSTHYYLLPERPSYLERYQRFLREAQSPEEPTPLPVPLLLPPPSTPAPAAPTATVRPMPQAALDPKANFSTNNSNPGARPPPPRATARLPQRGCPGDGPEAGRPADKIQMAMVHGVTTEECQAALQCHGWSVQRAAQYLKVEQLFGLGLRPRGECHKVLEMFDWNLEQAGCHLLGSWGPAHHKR
T1 sequence (Q07912 whole entry): as above
ALK, sequence (Q9UM73 19-1620): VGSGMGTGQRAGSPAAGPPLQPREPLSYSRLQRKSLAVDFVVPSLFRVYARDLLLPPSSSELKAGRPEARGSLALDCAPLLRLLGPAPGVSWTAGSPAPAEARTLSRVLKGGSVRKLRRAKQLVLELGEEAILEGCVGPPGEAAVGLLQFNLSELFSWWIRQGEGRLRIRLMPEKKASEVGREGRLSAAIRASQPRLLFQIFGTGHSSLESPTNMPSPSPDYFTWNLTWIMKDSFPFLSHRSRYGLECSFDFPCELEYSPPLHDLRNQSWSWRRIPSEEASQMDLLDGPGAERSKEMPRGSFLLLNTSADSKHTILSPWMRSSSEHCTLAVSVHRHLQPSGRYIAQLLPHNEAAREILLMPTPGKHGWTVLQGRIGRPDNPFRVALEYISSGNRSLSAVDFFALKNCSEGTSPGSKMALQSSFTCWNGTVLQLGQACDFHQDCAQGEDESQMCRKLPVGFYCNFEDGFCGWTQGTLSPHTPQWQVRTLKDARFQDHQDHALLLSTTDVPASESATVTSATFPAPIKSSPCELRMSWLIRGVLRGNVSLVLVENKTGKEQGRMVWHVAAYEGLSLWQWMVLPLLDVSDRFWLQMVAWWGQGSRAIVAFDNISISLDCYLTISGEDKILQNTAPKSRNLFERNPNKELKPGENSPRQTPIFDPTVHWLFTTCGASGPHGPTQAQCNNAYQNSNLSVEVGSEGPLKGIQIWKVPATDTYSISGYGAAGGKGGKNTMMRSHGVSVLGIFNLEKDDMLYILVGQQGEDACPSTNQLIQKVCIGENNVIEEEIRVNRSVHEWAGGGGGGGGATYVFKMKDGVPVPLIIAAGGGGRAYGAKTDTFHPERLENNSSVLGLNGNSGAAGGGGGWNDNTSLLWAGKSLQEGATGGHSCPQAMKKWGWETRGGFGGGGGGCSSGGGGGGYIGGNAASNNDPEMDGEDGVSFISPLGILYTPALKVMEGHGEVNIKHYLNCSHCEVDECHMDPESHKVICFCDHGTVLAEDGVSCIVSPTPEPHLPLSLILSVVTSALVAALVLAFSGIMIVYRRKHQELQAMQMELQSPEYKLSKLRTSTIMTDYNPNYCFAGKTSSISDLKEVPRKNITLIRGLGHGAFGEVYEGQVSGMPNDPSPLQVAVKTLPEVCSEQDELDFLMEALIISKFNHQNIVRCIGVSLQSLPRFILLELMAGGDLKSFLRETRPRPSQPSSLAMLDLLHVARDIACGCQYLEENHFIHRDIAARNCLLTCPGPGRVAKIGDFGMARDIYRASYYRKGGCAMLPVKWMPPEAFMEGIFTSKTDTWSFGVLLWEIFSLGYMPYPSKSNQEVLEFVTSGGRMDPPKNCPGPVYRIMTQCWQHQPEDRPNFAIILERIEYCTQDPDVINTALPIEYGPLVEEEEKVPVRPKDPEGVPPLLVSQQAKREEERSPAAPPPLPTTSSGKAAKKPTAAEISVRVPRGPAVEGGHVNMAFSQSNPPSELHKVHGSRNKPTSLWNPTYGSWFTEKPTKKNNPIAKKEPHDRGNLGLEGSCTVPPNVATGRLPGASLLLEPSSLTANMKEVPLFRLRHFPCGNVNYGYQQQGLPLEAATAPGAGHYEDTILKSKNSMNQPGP

COC(C)(C)CCn1nc(Nc2c(C)cccc2C)c2cnc(Nc3ccccc3)nc21 [2a]
IC50 (ACK1 autophosphorylation): 20 nM

5-[(2-Chloro-6-fluorophenyl)carbamoyl]-N^2-[(4-methoxyphenyl)amino]-N^4-[(tetrahydrofuran-2-yl)methyl]pyrimidine-2,4-diamine [9q]
% Inhibition @ 10 μM (ELISA) (ACK1 [1]; compound 10 μM, average of three or more determinations): 68 ± 10%

CN1CCN(c2ccc(Nc3ncc(Cl)c(NC[C@@H]4CCCO4)n3)cc2)CC1 [(S)-9b, (S)-5-Chloro-N^2-[4-(4-methylpiperazin-1-yl)phenyl]-N^4-[(tetrahydrofuran-2-yl)methyl]pyrimidine-2,4-diamine]
ACK1 activation (Tyr284 autophosphorylation) after EGF [2]: almost complete loss of ACK1 activation
IC50 (LNCaP cells): 1800 nM
stability in human plasma [3]: stable in human plasma

O=C(O)CCC(=O)N1CCN(c2ccc(Nc3ncc(C(=O)Nc4c(F)cccc4Cl)c(NCC4CCCO4)n3)cc2)CC1 (stereo not shown) [compound 22, 4-(4-{4-[[5-((2-Chloro-6-fluorophenyl)carbamoyl)-4-(((tetrahydrofuran-2-yl)methyl)amino)pyrimidin-2-yl]amino]phenyl}piperazin-1-yl)-4-oxobutanoic Acid]
inhibition at 10 µM (ACK1 [1]): 89 ± 5.6%
IC50 (ACK1 [4]): 28 nM

Cl.O=C(O)CCc1ccc(Nc2ncc(Br)c(NCC3CCCO3)n2)cc1 (stereo not shown) [compound 28]
ACK1 inhibition in ELISA (ACK1 [1]): moderate ACK1 inhibition

Oc1ccc(NNc2ncc(F)c(NCC3CCCO3)n2)cc1F (stereo not shown) [9t, 5-Fluoro-N^2-[(4-hydroxy-3-fluorophenyl)amino]-N^4-[(tetrahydrofuran-2-yl)methyl]pyrimidine-2,4-diamine Hydrochloride]
inhibition at 10 µM (ACK1 [1]): 41 ± 6.3%

COc1cc(N2CCC(N3CCN(C)CC3)CC2)ccc1Nc1ncc(Cl)c(Nc2ccccc2S(=O)(=O)C(C)C)n1 [compound 5, reference compound]
ACK1 activation (Tyr284 autophosphorylation) after EGF [2]: significant reduction in ACK1 activation

CN(C)CCNC(=O)CCc1ccc(Nc2ncc(Cl)c(NCC3CCCO3)n2)cc1.Cl (stereo not shown) [compound 26]
ACK1 inhibition in ELISA (ACK1 [1]): moderate ACK1 inhibition

Cc1cnc(NNc2ccc(O)c(F)c2)nc1NCC1CCCO1 (stereo not shown) [9u, 5-Methyl-N^2-[(4-hydroxy-3-fluorophenyl)amino]-N^4-[(tetrahydrofuran-2-yl)methyl]pyrimidine-2,4-diamine Hydrochloride]
inhibition at 10 µM (ACK1 [1]): 49 ± 2.8%

Cl.O=C(O)Cc1ccc(Nc2ncc(Cl)c(NCC3CCCO3)n2)cc1 (stereo not shown) [compound 23]
ACK1 inhibition in ELISA (ACK1 [1]): moderate ACK1 inhibition

Cl.O=C(O)CCC(=O)N1CCN(c2ccc(Nc3ncc(Br)c(NCC4CCCO4)n3)cc2)CC1 (stereo not shown) [compound 29]
ACK1 inhibition in ELISA (ACK1 [1]): significant ACK1 inhibition

CCN(CC)CCOC(=O)c1ccc(N)cc1 [procaine]
reported stability in human plasma [5]: unstable

CN1CCN(c2ccc(Nc3ncc(Cl)c(NC[C@H]4CCCO4)n3)cc2)CC1 [(R)-9b, (R)-5-Chloro-N^2-[4-(4-methylpiperazin-1-yl)phenyl]-N^4-[(tetrahydrofuran-2-yl)methyl]pyrimidine-2,4-diamine]
ACK1 activation (Tyr284 autophosphorylation) after EGF [2]: almost complete loss of ACK1 activation
half-life at 250 µM ([3]; human, human plasma): > 6 h
stability in human plasma [3]: stable in human plasma
fold difference of ALK IC50 versus ACK1 IC50 (ALK): 3 fold

COc1cc(N2CCN(C)CC2)ccc1Nc1ncc2c(n1)N(C)c1ccccc1C(=O)N2 [compound 3]
A549 lung cancer cell growth (A549 lung cancer cells): inhibits

c1ccc(-c2oc3ncnc(NC[C@@H]4CCCO4)c3c2-c2ccccc2)cc1 [1b]
IC50 (VCaP cells): 4000 nM

Cl.O=C(O)CCc1ccc(Nc2ncc(Cl)c(NCC3CCCO3)n2)cc1 (stereo not shown) [compound 24]
ACK1 inhibition in ELISA (ACK1 [1]): moderate ACK1 inhibition
